The target of assay [1] is Beta-lactamase (Pseudomonas aeruginosa, UniProt Q79MP6).
The target in the next assay is Troponin, cardiac muscle (Homo sapiens, UniProt P19429+P45379+P63316). Description: Fluorescence-based biochemical high throughput dose response assay for activators of the calcium sensitivity of cardiac Regulated Thin Filaments (RTF). [Related pubchem assays (depositor defined):AID493008, AID493018, AID504382, AID504383]. The assay is classed as protein-complex assay.

The target in assay [2] is Beta-lactamase (Salmonella choleraesuis (strain SC-B67), UniProt Q5J463).
For assay [3], the target named is Eukaryotic translation initiation factor 4E (Mus musculus, UniProt P63073). Description: eIF4E–eIF4G protein interaction inhibitors, dose response, biochemical, TR-FRET (AID 855).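 Further: potency for disrupting eIF4E binding to eIF4GI seen as loss of FRET.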 The class given is functional. For orientation: In TR-FRET formats the signal depends on donor and acceptor labels being close together.
Assay [4] has as its target T1, Mu-type opioid receptor (Homo sapiens, UniProt P35372). Description: MOR antagonists, SAR follow-up, image-based (AID 2420).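 Further: compounds added before stimulation of receptor with agonist DAMGO.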 The class given is functional.
For assay [5], the target named is T2, Delta-type opioid receptor (Homo sapiens, UniProt P41143). Description: DOR agonists, SAR follow-up, image-based (AID 2370). The assay is classed as functional.
T2 sequence (P41143 whole entry): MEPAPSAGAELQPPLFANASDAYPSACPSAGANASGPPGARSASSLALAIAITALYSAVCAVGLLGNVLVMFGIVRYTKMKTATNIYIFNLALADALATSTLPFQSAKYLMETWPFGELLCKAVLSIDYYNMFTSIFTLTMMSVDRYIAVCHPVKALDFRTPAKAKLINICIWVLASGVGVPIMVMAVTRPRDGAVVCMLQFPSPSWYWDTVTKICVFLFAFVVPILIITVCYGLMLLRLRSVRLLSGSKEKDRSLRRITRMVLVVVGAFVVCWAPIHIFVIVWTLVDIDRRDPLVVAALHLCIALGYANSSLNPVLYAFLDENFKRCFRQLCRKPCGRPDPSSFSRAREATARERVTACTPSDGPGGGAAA
In assay [6] the target is T1, Mu-type opioid receptor. Description: MOR agonists by imaging, SAR follow-up, image-based (AID 2352). The assay is classed as functional.
The target of assay [7] is T3, Kappa-type opioid receptor (Homo sapiens, UniProt P41145). Description: KOR agonist analogs, imaging readout, SAR follow-up, image-based (AID 2359). The assay is classed as functional.
T3 sequence (P41145 whole entry): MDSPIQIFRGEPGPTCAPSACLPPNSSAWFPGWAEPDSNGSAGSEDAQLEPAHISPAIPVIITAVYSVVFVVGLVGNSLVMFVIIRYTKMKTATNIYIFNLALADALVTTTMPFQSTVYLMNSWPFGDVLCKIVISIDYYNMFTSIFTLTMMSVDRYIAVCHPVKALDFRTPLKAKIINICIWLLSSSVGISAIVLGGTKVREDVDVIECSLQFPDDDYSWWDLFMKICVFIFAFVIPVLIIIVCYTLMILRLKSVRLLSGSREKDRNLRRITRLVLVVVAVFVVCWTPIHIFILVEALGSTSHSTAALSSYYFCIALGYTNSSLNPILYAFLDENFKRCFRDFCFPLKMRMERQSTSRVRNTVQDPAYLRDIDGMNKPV
In assay [8] the target is T2, Delta-type opioid receptor. Description: DOR antagonists, SAR follow-up, image-based (AID 2357). The assay is classed as functional.
The target of assay [9] is T3, Kappa-type opioid receptor. Briefly: kappa opioid receptor blockers, cell-based, luminescence, beta-arrestin, SAR follow-up (AID 2285). The class given is functional.
In assay [10] the target is T3, Kappa-type opioid receptor. Description: KOR antagonists by imaging, SAR follow-up, image-based (AID 2348). The class given is functional.
The target of assay [11] is Peroxisome proliferator-activated receptor gamma/Nuclear receptor coactivator 2 (Homo sapiens, UniProt P37231). Description: TR-FRET dose response biochemical High Throughput Screening assay for agonists of the steroid receptor coactivator 2 (SRC-2) recruitment by the peroxisome proliferator-activated receptor gamma (PPAR gamma): non-selective agonists. [Related pubchem assays: 1297, 1032 ]. The class given is functional.
Peroxisome proliferator-activated receptor gamma/Nuclear receptor coactivator 2, sequence (P37231 whole entry): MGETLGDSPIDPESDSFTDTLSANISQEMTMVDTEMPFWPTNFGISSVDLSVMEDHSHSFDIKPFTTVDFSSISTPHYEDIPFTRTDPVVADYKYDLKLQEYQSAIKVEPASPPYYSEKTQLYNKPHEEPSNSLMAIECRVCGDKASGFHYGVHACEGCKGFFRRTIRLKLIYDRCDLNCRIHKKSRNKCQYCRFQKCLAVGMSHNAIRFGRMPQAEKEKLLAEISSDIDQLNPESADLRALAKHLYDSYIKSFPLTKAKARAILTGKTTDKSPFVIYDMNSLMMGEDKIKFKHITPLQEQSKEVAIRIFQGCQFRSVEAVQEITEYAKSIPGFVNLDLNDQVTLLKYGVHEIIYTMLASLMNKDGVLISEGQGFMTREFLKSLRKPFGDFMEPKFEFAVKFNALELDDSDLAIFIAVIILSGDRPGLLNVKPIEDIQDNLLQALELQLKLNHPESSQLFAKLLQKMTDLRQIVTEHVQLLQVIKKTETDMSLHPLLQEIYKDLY
Peroxisome proliferator-activated receptor gamma/Nuclear receptor coactivator 2, sequence (Q15596 whole entry, further chain): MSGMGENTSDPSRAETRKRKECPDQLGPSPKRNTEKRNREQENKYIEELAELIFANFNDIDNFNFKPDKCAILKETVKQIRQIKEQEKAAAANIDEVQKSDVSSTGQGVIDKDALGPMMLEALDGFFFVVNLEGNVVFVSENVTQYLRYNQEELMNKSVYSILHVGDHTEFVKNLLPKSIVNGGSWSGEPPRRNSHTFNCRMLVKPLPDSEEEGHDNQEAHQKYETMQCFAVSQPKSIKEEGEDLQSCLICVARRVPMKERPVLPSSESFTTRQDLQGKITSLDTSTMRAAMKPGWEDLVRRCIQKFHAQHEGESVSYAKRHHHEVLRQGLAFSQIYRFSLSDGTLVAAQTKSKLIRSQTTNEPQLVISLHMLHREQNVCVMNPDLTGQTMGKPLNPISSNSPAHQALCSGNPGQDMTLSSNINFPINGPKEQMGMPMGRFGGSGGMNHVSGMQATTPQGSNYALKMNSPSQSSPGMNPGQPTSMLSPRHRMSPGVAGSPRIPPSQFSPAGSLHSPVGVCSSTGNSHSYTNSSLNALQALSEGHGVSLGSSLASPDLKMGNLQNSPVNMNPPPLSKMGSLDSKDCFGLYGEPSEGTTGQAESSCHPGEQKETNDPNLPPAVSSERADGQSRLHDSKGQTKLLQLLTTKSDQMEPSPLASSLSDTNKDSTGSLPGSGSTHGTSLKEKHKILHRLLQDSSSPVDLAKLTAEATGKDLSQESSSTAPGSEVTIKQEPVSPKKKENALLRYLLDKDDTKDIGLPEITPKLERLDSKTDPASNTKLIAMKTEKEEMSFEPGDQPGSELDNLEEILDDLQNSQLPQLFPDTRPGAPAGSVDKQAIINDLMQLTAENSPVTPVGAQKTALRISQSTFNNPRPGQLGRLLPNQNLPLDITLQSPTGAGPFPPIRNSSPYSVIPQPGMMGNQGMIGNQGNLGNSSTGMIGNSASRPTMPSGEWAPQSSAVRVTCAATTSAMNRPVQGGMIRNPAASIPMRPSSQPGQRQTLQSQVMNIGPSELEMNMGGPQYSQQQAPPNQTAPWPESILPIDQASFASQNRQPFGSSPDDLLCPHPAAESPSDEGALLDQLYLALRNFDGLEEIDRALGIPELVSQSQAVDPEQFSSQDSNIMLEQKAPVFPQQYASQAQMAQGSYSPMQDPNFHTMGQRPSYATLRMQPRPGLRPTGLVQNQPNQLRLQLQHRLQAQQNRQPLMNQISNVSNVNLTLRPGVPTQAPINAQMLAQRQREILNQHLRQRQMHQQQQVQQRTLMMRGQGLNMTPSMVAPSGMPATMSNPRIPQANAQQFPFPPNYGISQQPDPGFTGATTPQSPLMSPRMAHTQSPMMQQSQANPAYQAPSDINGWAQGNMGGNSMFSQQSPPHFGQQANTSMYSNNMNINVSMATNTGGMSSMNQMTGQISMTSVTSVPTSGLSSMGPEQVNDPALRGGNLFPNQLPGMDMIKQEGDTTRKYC

Assay [12] has as its target Peroxisome proliferator-activated receptor gamma/Nuclear receptor coactivator 1 (Homo sapiens, UniProt P37231). Description: TR-FRET dose response biochemical High Throughput Screening assay for agonists of the steroid receptor coactivator 1 (SRC-1) recruitment by the peroxisome proliferator-activated receptor gamma (PPAR gamma): non-selective agonists. [Related pubchem assays (depositor defined):AID1300, AID1808, AID504735, AID631]. The assay is classed as protein assay.

Assay [13] has as its target Peroxisome proliferator-activated receptor gamma/Nuclear receptor coactivator 3 (Homo sapiens, UniProt P37231). Description: TR-FRET dose response biochemical High Throughput Screening assay for agonists of the steroid receptor coactivator 3 (SRC-3) recruitment by the peroxisome proliferator-activated receptor gamma (PPAR gamma): non-selective agonists. [Related pubchem assays: 1301 (Confirmation screen.), 1048 (Primary screen.)]. The class given is functional.

The target in a further assay is Cytochrome P450 3A4 (Homo sapiens, UniProt P08684). Conditions: Potency.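 Further: confirmatory qHTS run detecting inhibitors and substrates of CYP3A4.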
The target in the next assay is Cytochrome P450 2C9 (Homo sapiens, UniProt P11712). To be noted: Potency.
The target in the next assay is Cytochrome P450 2D6 (Homo sapiens, UniProt P10635). Description: qHTS Assay for Inhibitors and Substrates of Cytochrome P450 2D6. [Related pubchem assays: 410 ]. The assay is classed as ADME. To be noted: read-out: Potency. On the technique in general: Quantitative high-throughput screening tests each substance at several concentrations.

Eight compounds from ChEMBL document CHEMBL1201862, “PubChem BioAssay data set” (2004) can be followed below.

The source made the active and inactive calls.

In general, IC50 refers to the concentration at which inhibition is half-maximal. Usually EC50 stands for the concentration that produces a half-maximal response.

T1 sequence (P35372 whole entry): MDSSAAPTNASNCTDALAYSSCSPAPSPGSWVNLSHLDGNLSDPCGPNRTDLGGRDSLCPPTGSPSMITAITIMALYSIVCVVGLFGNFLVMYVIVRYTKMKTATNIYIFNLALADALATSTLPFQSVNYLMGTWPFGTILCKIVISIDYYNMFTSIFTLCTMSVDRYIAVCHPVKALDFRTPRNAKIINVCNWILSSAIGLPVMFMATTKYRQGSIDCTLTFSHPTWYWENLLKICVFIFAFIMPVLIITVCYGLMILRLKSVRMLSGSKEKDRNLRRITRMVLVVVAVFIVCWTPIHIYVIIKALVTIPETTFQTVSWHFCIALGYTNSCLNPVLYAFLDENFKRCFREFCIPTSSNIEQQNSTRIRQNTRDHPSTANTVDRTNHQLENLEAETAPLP
Peroxisome proliferator-activated receptor gamma/Nuclear receptor coactivator 1, sequence (P37231 whole entry): as the sequence (P37231 whole entry) above
Peroxisome proliferator-activated receptor gamma/Nuclear receptor coactivator 1, sequence (Q15788 whole entry, further chain): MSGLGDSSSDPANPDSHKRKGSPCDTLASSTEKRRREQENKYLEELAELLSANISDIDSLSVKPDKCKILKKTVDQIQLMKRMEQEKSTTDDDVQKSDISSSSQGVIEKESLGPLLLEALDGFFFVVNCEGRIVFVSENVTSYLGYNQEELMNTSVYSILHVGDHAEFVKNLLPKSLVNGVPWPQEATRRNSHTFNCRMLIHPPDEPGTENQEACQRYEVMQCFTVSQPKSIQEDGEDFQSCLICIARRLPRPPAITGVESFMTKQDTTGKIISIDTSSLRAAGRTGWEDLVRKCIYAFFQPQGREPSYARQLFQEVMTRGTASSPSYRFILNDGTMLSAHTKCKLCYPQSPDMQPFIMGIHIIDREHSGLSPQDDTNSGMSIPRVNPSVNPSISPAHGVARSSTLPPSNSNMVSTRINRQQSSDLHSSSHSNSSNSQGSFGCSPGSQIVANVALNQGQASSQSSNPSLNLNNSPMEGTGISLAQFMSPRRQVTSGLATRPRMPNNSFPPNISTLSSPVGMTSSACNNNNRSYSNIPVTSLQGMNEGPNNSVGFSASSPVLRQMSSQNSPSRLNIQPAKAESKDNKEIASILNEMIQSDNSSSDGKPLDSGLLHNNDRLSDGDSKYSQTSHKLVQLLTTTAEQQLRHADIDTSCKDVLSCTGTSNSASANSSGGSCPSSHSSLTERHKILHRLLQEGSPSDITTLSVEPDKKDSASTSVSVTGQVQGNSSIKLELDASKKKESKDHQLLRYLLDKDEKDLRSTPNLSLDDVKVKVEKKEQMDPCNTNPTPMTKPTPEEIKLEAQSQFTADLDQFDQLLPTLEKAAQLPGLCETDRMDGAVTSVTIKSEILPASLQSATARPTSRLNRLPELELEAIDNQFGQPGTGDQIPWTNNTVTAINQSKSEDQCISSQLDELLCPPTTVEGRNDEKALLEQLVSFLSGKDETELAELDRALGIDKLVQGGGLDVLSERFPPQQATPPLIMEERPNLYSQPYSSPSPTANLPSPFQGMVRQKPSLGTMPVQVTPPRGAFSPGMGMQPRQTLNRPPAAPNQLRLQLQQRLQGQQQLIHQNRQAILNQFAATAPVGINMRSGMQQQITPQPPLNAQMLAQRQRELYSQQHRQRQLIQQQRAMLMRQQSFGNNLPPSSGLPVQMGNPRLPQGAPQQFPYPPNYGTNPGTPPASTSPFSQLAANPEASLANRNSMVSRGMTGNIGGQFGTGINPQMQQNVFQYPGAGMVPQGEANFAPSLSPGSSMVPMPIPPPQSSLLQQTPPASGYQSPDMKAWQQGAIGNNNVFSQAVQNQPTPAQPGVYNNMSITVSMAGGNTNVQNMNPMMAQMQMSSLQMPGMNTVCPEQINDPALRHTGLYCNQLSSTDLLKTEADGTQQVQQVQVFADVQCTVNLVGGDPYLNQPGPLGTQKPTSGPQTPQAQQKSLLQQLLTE

Turning to `CN(/N=C/c1ccc(-c2ccc([N+](=O)[O-])cc2)o1)c1ccccc1`, the IC50 at Beta-lactamase [1] and on Beta-lactamase [2] was > 59.6 µM (inactive) throughout. Further, the EC50 at Troponin, cardiac muscle is 1.44 µM (active).
For `Cc1cc(/C=C2/C(=O)N(C)C(=S)N2C)ccc1N1CCCC1`, at Troponin, cardiac muscle, the EC50 was 1.55 µM (active).
For `COC(=O)C1=C(C)NC(=O)C1(Nc1ccc(Cl)cn1)C(F)(F)F` (stereo not drawn), in [3], the IC50 was > 64 µM (inactive).
As for `Cc1ccc(NC(=S)NC(NC(=O)OCc2ccccc2)C(Cl)(Cl)Cl)c(C)c1` (stereo not drawn), the IC50 was > 32 µM (inactive) on Mu-type opioid receptor [4], > 32 µM (inactive) in assay [8], 8.74 µM (active) in assay [9] and 1.98 µM (active) in assay [10]. The EC50 (in assay [5]; at Mu-type opioid receptor [6]; in [7]) was > 32 µM (inactive) in each case.
Take `CCn1c(=O)cc(SCC(=O)Nc2ccc(Cl)cc2)c2ccccc21`: the EC50 in assay [11] is > 79.4 µM (not active); in [12], > 79.4 µM (inactive); in assay [13], > 79.4 µM (not active).
For the compound `CC1CCC2C(=O)OC(CN3C(=O)c4ccccc4C3=O)CN2C1c1ccc(Br)cc1` (stereo not drawn), the AC50 on Cytochrome P450 3A4 was 3.98 µM (inconclusive); at Cytochrome P450 2C9 it was 3.16 µM (inconclusive); on Cytochrome P450 2D6, 3.16 µM (inconclusive).
With `Sc1n[nH]c(-c2cc(Cl)ccc2Cl)n1`, the EC50 is > 26.5 µM (not active) in assay [11], > 79.4 µM (inactive) in assay [12] and > 79.4 µM (not active) in [13].
As for `O=C(NC(NC(=S)Nc1ccc(Br)cc1)C(Cl)(Cl)Cl)OCc1ccccc1` (stereo not drawn), the IC50 at Mu-type opioid receptor [4] is > 32 µM (inactive); in assay [8] it was > 32 µM (inactive); in assay [9], > 10 µM (inactive); in [10], > 32 µM (inactive). For the same compound, the EC50 (in [5]; on Mu-type opioid receptor [6]; in [7]) was > 32 µM (inactive) in each case.
